Laboratory results as given in ChEMBL document CHEMBL5257018, “Novel Strategies for the Treatment of Pseudomonas aeruginosa Infections” (J Med Chem, 2016).
Bridge positions count the residues as written; N and C are the ends. Square brackets hold non-standard residues; d marks the D form. Peptide text beside a SMILES is read from it. * marks the point of attachment. Gly(octyl) = CCCCCCCC[C@H](N)C(=O)O; Heptanoyl(6-Me) = CC(C)CCCCC(=O)*; Octanoyl = CCCCCCCC(=O)*; Dab = NCC[C@H](N)C(=O)O

Experiments:
[1] = Half life in mouse; type: ADME, organism-based; settings: in vivo
Pseudomonas aeruginosa [2] = assay: Antimicrobial activity against polymyxin resistant Pseudomonas aeruginosa assessed as reduction in bacterial growth; type: functional
[3] = target: T1, Transcriptional activator protein LasR (Pseudomonas aeruginosa (strain ATCC 15692 / PAO1 / 1C / PRS 101 / LMG12228)) (UniProt P25084); assay: Inhibition of Pseudomonas aeruginosa PAO1 LasR at 200 uM relative to control
T1 sequence (whole entry): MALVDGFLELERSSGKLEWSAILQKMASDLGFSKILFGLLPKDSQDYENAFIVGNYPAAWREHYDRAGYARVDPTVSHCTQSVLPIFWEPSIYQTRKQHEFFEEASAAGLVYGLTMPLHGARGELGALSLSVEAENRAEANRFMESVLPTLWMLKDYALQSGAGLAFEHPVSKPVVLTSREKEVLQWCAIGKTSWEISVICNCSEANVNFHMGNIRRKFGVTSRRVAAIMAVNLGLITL

[4] = target: T2, PA-I galactophilic lectin (Pseudomonas aeruginosa (strain ATCC 15692 / PAO1 / 1C / PRS 101 / LMG12228), UniProt Q05097); assay: (§1) Binding affinity to Pseudomonas aeruginosa PAO1 LecA assessed as dissociation constant
T2 sequence (Q05097 whole entry): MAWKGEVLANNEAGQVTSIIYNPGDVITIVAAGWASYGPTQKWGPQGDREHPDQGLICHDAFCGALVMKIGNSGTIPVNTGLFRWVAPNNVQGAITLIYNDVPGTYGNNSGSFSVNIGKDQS

[5] = Inhibition of bacterial FabH; set-up: species or system Bacteria
[6] = target: T3, PA-I galactophilic lectin (Pseudomonas aeruginosa (strain ATCC 15692 / PAO1 / 1C / PRS 101 / LMG12228)) (UniProt Q05097); assay: as §1
T3 sequence (whole entry): T2 sequence (Q05097 whole entry)

Pseudomonas aeruginosa [7] = assay: Downregulation of c-di-GMP level in Pseudomonas aeruginosa PA14 planktonic cells harboring wspR gene mutation at 50 uM incubated for 24 hrs by HPLC analysis; type: functional
[8] = Antagonist activity at Pseudomonas aeruginosa MvfR
Pseudomonas aeruginosa [9] = assay: Inhibition of Pseudomonas aeruginosa PAO1 Pyocyanin at 200 uM relative to control
[10] = target: Elastase (Pseudomonas aeruginosa (strain ATCC 15692 / PAO1 / 1C / PRS 101 / LMG12228)) (UniProt P14756); assay: Inhibition of Pseudomonas aeruginosa PAO1 elastase at 200 uM relative to control
Pseudomonas aeruginosa [11] = assay: Antagonist activity at Pseudomonas aeruginosa MvfR at 15 uM relative to control; set-up: scale not given: the % may be the effect or the level left; settings: filed as antagonist
Elastase = Elastase (Pseudomonas aeruginosa (strain ATCC 15692 / PAO1 / 1C / PRS 101 / LMG12228), UniProt P14756); assay: Inhibition of Pseudomonas aeruginosa LasB elastase using aminobenzoyl-Ala-Gly-Leu-Ala-p-nitro-benzyl-amide as substrate b microtiter-based fluorimetric assay
Sequence of Elastase (P14756 whole entry): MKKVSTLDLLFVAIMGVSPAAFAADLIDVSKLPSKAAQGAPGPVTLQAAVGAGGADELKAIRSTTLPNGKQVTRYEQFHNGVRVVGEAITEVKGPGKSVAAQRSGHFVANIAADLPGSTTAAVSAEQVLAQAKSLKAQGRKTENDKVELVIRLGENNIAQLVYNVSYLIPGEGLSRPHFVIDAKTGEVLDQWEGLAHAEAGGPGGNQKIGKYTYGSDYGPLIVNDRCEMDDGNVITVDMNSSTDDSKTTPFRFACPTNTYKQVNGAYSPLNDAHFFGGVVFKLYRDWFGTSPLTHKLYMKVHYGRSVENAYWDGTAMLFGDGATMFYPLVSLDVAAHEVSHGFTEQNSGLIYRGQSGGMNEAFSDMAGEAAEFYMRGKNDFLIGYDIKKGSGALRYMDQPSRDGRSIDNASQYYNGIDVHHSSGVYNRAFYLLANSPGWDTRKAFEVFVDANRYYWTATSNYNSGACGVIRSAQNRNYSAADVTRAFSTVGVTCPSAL

Sequence of Elastase (Pseudomonas aeruginosa (strain ATCC 15692 / PAO1 / 1C / PRS 101 / LMG12228)) (P14756 198-498 limits assumed): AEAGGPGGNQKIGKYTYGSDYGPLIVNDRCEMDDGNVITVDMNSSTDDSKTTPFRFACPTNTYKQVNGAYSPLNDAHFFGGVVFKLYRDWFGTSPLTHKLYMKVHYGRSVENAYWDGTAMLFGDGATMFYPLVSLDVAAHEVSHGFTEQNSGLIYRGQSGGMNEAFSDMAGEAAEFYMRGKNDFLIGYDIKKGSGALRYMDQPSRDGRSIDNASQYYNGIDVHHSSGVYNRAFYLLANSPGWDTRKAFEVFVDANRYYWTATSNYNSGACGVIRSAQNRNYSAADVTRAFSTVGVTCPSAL

CO[C@H]1O[C@H](CO)[C@@H](O)[C@H](O)[C@@H]1O
half-life [1]: 0.75 min

CC(C)CCCCC(=O)N[C@@H](CCN)C(=O)N[C@H](C(=O)N[C@@H](CCN)C(=O)N[C@H]1CCNC(=O)[C@H]([C@@H](C)O)NC(=O)[C@H](CCN)NC(=O)[C@H](CCN)NC(=O)[C@H](CC(C)C)NC(=O)[C@@H](Cc2ccccc2)NC(=O)[C@H](CCN)NC1=O)[C@@H](C)O [POLYMYXIN B2] ({Heptanoyl(6-Me)}-[Dab]T[Dab][Dab][Dab][dF]L[Dab][Dab]T; lactam 4-C)
MIC (Pseudomonas aeruginosa [2]): < 2 µg/mL

O=C(CCCc1c[nH]c2ccccc12)N[C@H]1CCOC1=O
inhibition [3]: 66%

COc1ccc(/C=C/C(=O)NC[C@H]2O[C@H](OC)[C@@H](O)[C@@H](O)[C@@H]2O)cc1OC
half-life [1]: 5 min | Kd [4]: 11000 nM

CCN(CC)S(=O)(=O)c1cc(C(=O)Nc2ccccc2C(=O)O)ccc1Br
IC50 [5]: 65000 nM

OC[C@H]1O[C@@H](OCc2cn([C@H]3[C@H](O)[C@@H](O)[C@H](c4cn([C@H]5[C@H](O)[C@@H](O)[C@H](n6cc([C@@H]7O[C@H](CO)[C@@H](n8cc(CO[C@@H]9O[C@H](CO)[C@H](O)[C@H](O)[C@H]9O)nn8)[C@H](O)[C@H]7O)nn6)O[C@@H]5CO)nn4)O[C@@H]3CO)nn2)[C@H](O)[C@@H](O)[C@H]1O
K [6]: 28 nM

O=C1c2ccccc2[Se](=O)N1c1ccccc1 (stereo unspecified)
Activity (Pseudomonas aeruginosa [7]): 80%

O=C(CSc1nc2cc([N+](=O)[O-])ccc2[nH]1)Nc1ccc(Oc2ccccc2)cc1
IC50 [8]: 300 nM

CC[C@H](C)[C@H](NC(=O)[C@H](Cc1cnc[nH]1)NCCCC[C@H](NC(=O)[C@@H](NC(=O)[C@H](CCCCN)NC(=O)[C@H](Cc1ccccc1)NC(=O)[C@H](CCCCNC(=O)[C@H](CC(C)C)NC(=O)[C@@H]1CCCN1C(=O)[C@@H](N)CCCCNC(=O)C[C@@H]1O[C@@H](C)[C@@H](O)[C@@H](O)[C@@H]1O)NC(=O)[C@H](CC(C)C)NC(=O)[C@@H]1CCCN1C(=O)[C@@H](N)CCCCNC(=O)C[C@@H]1O[C@@H](C)[C@@H](O)[C@@H](O)[C@@H]1O)[C@@H](C)CC)C(=O)N[C@H](C(=O)N[C@@H](CCCCN)C(=O)N[C@@H](Cc1ccccc1)C(=O)N[C@@H](CCCCN[C@@H](CC(C)C)C(=O)N1CCC[C@H]1C(=O)N[C@@H](CCCCNC(=O)C[C@@H]1O[C@@H](C)[C@@H](C)[C@@H](C)[C@@H]1O)C(=O)O)C(=O)N[C@@H](CC(C)C)C(=O)N1CCC[C@H]1C(=O)N[C@@H](CCCCNC(=O)C[C@@H]1O[C@@H](C)[C@@H](O)[C@@H](O)[C@@H]1O)C(=O)O)[C@@H](C)CC)C(N)=O
Kd [4]: 140 nM

CCCCCCCCCC(=O)CC(=O)Nc1cccc(OC)c1
inhibition (Pseudomonas aeruginosa [9]): 93% | inhibition [10]: 63%

CCCCCCCC[C@@H]1NC(=O)[C@@H](Cc2ccccc2)NC(=O)[C@H](CCN)NC(=O)[C@@H](NC(=O)[C@H](CCN)NC(=O)[C@@H](NC(=O)[C@H](CCN)NC(=O)CCCCCCC)[C@@H](C)O)CCNC(=O)[C@H]([C@@H](C)O)NC(=O)[C@H](CCN)NC(=O)[C@H](CCN)NC1=O (Octanoyl-[Dab]T[Dab][Dab][Dab][dF][Gly(octyl)][Dab][Dab]T; lactam 4-C)
MIC (Pseudomonas aeruginosa [2]): < 2 µg/mL

CCCCCCCc1cc(=O)c2cc([N+](=O)[O-])ccc2[nH]1
Activity (Pseudomonas aeruginosa [11]): 44%

Cc1c(O)c(=S)ccn1Cc1ccc(-c2ccccc2)cc1
IC50 (Elastase): 3000 nM

CCCCCCCCCc1nc2cc(Cl)ccc2c(=O)n1N
IC50 [8]: 50 nM

CC(C)(C)c1ccc(C(=O)NO)cc1
IC50 [8]: 87 nM

C[C@@H]1O[C@H](CO)[C@@H](O)[C@H](O)[C@@H]1O
Kd [4]: 16000 nM

CC(C)C[C@H](NP(=O)(O)O[C@@H]1O[C@@H](C)[C@H](O)[C@@H](O)[C@H]1O)C(=O)N[C@@H](Cc1c[nH]c2ccccc12)C(=O)O [PHOSPHORAMIDON]
Ki (Elastase): 57 nM

OC[C@H]1O[C@@H](Sc2ccc3ccccc3c2)[C@H](O)[C@@H](O)[C@H]1O
Kd [4]: 6300 nM

CO[C@H]1O[C@H](CNC(=O)/C=C/c2ccccc2)[C@@H](O)[C@H](O)[C@@H]1O
half-life [1]: 5 min
